# Laboratory results from patent US8153658B2, “Piperidine derivative or salt thereof” (Astellas Pharma, Inc., priority 2006, dated 2012).
# pEC50, pIC50: −log10 of the molar value. Structures can show the parent of a compound that is named as a salt. Where two headings read alike, the source gives them in different places.
# Columns and labels:
# CYP2D6 [1] = biological target: T1, CYP2D6 (Homo sapiens, UniProt P10635); conditions: reported, Non-Patent Document 4; cited from earlier work
# CYP2D6 [2] = biological target: T1, CYP2D6; assay: Human CYP2D6 inhibition test; assay type: biochemical; design: purchased BD Gentest 456217; conditions: CYP2D6 7.5 pmol/mL; fluorescence substrate AMMC 1.5 μM; 37° C. 30 minutes
# Method: Test 3. Human CYP2D6 Inhibition Test
# Inhibitory activity evaluation for CYP2D6 was carried out by measuring it in accordance, roughly, with a reference (“Drug Metabolism and Disposition”, 2001, vol. 29, p. 1196-1200).
# Final concentrations of the reagents in the enzyme reaction solution were respectively set to CYP2D6=7.5 pmol/mL (manufactured by BD Gentest, Catalog No. 456217), reduced type nicotinamide adenine dinucleotide phosphate (NADPH) regeneration system (0.0081 mM nicotinamide adenine dinucleotide phosphate (NADP+), 0.41 mM glucose-6-phosphate, 0.41 mM MgCl2, 0.4 units glucose-6-phosphate dehydrogenase), and a fluorescence substrate AMMC=1.5 μM, 100 mM potassium phosphate buffer (pH 7.4). Each compound was made into a 50% acetonitrile solution and added to the enzyme reaction solution (acetonitrile final concentration 2.5%). The enzyme reaction was carried out at 37° C. for 30 minutes, the reaction was stopped using a stopping liquid (0.1 M tris(hydroxymethyl)aminomethane (Tris-base):acetonitrile=20:80), and the fluorescence intensity was then measured. The concentration showing 50% inhibition (IC50) was calculated from the thus obtained fluorescence intensity, by defining the enzyme activity at a time of no compound addition as 100%.
# human CaSR = biological target: T2, human CaSR (Homo sapiens, UniProt P41180); assay: Human calcium sensing receptor (CaSR) agonism test (Fluo-3 / FLIPR); assay type: cell-based; conditions: HEK 293 cell stably expressing human CaSR; 0.5 mM Ca2+; 2 mM Ca2+ group = 100%; read-out: EC50 (compound concentration showing 50% human CaSR agonistic activity)
# T2 construct: a human CaSR open reading frame (ORF) was contained in the pcDNA3.1/Zeo(+) vector; expressed in transfected cells
# T2 sequence (P41180 20-1078): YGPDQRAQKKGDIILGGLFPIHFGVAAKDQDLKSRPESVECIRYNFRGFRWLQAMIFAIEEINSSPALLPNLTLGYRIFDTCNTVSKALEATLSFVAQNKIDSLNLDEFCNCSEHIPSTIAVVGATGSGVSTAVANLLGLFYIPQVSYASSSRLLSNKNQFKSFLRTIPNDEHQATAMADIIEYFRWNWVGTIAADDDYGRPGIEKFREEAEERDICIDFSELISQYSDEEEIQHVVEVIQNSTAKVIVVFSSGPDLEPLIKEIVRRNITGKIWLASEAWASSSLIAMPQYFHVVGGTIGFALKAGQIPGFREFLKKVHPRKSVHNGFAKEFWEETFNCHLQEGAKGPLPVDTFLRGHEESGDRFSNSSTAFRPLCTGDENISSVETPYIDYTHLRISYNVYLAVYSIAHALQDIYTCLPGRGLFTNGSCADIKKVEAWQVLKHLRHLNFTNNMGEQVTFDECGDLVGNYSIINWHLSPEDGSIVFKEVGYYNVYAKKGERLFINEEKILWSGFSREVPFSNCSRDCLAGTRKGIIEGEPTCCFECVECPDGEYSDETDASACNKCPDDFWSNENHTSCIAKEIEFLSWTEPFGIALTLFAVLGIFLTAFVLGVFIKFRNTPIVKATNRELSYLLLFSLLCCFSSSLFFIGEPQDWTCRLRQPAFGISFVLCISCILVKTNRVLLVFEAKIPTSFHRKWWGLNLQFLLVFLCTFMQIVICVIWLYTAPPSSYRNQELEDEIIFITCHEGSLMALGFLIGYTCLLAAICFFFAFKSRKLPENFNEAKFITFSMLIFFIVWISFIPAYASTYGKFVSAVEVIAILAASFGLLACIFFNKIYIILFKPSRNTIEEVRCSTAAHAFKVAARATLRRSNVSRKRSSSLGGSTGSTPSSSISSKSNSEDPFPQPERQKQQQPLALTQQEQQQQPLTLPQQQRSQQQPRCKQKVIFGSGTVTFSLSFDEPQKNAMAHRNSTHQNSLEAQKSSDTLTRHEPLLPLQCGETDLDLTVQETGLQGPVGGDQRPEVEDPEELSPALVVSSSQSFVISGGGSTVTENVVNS
# Description: Test 1. Human calcium sensing receptor (CaSR) agonism test
# 1) Preparation of Human CaSR Expression Vector
# A DNA fragment coding for human CaSR was cloned in the standard method.
# Illustratively, using 203 to 2387 of NM_000388 as a DNA fragment D4, and 2210 to 3633 as a DNA fragment B2, they were amplified using a human kidney cDNA (manufactured by Invitrogen) as the template and using a DNA polymerase (a registered trade name: Pyrobest, manufactured by Takara Bio), and respectively cloned into a pCR2.1 vector using a pCR2.1-Topo vector (manufactured by Invitrogen). Next, the DNA fragments prepared by digesting the pCR2.1-D4 with SpeI and XbaI were inserted into the same sites of pcDNA3.1/Zeo(+) vector. Successively, the fragments prepared by digesting pCR2.1-B2 with SacI and XbaI were inserted into the SacI and XbaI sites of previously prepared pcDNA3.1/Zeo(+)-D4(SpeI-XbaI), thereby obtaining a human CaSR expression vector pcDNA3.1/Zeo(+)-hCaSR in which a human CaSR open reading frame (ORF) was contained in the pcDNA3.1/Zeo(+) vector.
# 2) Preparation of Human CaSR Expression Cell
# The human CaSR expression vector was transferred into a HEK 293 cell using a transfection reagent (registered trademark: FuGene 6, manufactured by Roche Diagnostics). After the gene transfer, this was cultured in a DMEM (manufactured by Invitrogen) medium containing 40 μg/ml Zeocin (registered trademark, manufactured by Invitrogen) and a 10% fetal bovine serum at 37° C. for 2 weeks in the presence of 5% CO2, thereby obtaining Zeocin-resistant clones. A human CaSR stably expressing HEK 293 clone was obtained from these clones by selection using the responsiveness to extracellular Ca^2+ as an index.
# 3) Human CaSR Agonism Test
# The HEK 293 cell stably expressing human CaSR was inoculated into a poly-D-lysine-coated black clear bottom 96 well plate (manufactured by BD Biosciences). Hanks' balanced salt solution (HBSS) (Ca^2+ (−), Mg^2+ (−), manufactured by Invitrogen) containing a 20 mM HEPES (2-[4-(2-hydroxyethyl)-1-piperazinyl]ethanesulfonic acid) buffer (pH 7.4), 2.5 mM of probenecid (manufactured by Sigma), and 0.1% of bovine serum albumin was prepared as a washing buffer. After the inoculation and the subsequent overnight culturing, the medium was discarded, the washing buffer supplemented with 1 mM CaCl2 and 10 μM Fluo-3 AM (trade name, manufactured by DOJINDO) was added thereto in 100 μl per well portions, and then the incubation was carried out at 37° C. for 1 hour in the presence of 5% CO2. This was washed twice with 200 μl of the washing buffer, replaced by 100 μl of the washing buffer supplemented with 0.5 mM CaCl2 and allowed to stand still for 10 minutes, and then the responsiveness to each compound to be evaluated was detected using a plate reader for fluorometry image analysis use (registered trademark: FLIPR, manufactured by Molecular Devices). In this connection, the compound to be evaluated was used by optionally diluting with the washing buffer supplemented with 0.5 mM Ca^2+.
# The human CaSR agonistic activity strength of each compound to be evaluated was calculated by defining the solvent group as 0% and the 2 mM of Ca^2+ in the final concentration group as 100%, and the compound concentration showing 50% activity (EC50) was calculated from a concentration-activity curve by the method of least squares.
# [3] = Measurement of rat plasma calcium concentration; assay type: in vivo; conditions: read-out: Rat plasma calcium concentration reducing ratio (%) 2 hours after administration (3 mg/kg)
# Method: Test 2. Measurement of Rat Plasma Calcium Concentration and Plasma PTH Concentration
# The compounds of the present invention were administered to rats, and their influences upon the plasma calcium concentration and the plasma PTH concentration were examined. The test was carried out by single oral administration of the compounds of the present invention and the control compounds to 5 to 6 normal male rats, or male rats with renal failure, respectively As a vehicle group, 0.5% of a methyl cellulose (MC) solution was administered at a dose of 5 ml/kg. As a reference compound, cinacalcet was dissolved in the MC solution and administered at a dose of 3 mg/kg. Each of the compounds of the present invention was dissolved or suspended in the MC solution, and administered at a dose of 1, 3 or 10 mg/kg.
# Blood samples were collected from the orbital venous plexus under ether anesthesia before the administration and 2 hours, 4 hours, or 8 hours in some cases, after the administration, and the plasma calcium concentration was measured using Calcium E-Test Wako (manufactured by Wako Pure Chemical Industries), and the plasma PTH concentration was measured using a Rat Intact PTH ELISA Kit (manufactured by Immutopics).
# T1 sequence (P10635 whole entry): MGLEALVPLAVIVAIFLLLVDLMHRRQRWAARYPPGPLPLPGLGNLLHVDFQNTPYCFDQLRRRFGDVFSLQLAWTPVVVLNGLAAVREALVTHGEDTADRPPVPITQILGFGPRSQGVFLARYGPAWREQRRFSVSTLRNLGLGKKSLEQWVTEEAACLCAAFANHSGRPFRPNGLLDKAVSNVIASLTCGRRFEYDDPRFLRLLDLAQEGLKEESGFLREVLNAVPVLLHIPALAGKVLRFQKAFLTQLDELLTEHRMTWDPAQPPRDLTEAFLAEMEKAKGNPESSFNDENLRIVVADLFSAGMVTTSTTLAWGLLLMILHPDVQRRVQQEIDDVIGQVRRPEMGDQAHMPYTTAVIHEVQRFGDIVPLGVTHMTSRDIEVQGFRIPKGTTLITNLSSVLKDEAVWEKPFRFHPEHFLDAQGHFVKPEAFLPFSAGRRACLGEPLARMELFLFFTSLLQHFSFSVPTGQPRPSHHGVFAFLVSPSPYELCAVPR
Compound,activity to inhibit CYP2D6 (in words) (CYP2D6 [1]),pIC50 (CYP2D6 [2]),pEC50 (human CaSR),"inhibition in vivo at 3 mg/kg ([3]; po, 2 h)","inhibition in vivo at 3 mg/kg ([3]; normal male rats, single oral administration 3 mg/kg, 2 hours after administration)"
C[C@@H](NCCCc1cccc(C(F)(F)F)c1)c1cccc2ccccc12 [cinacalcet],strong activity to inhibit CYP2D6,–,–,–,–
"C[C@@H](NCC1CCN(C(=O)Oc2ccc(C(=O)O)cc2)CC1c1ccccc1)c1cccc2ccccc12 (stereo partly drawn) [Example 25, 4-({[4-({[(1R)-1-(1-naphthyl)ethyl]amino}methyl)-3-phenylpiperidin-1-yl]carbonyl}oxy)benzoic acid hydrochloride]",–,≤ 4.70,7.89,17%,–
"C[C@@H](NCC1CCN(c2cccc(C(=O)O)c2)CC1c1ccccc1F)c1cccc2ccccc12 (stereo partly drawn) [Example 35, 3-[3-(2-fluorophenyl)-4-({[(1R)-1-(1-naphthyl)ethyl]amino}methyl)piperidin-1-yl]benzoic acid hydrochloride]",–,≤ 4.70,8.12,–,33%
